The values below come from US7790884B2, “Acylaminopiperidine compound” (Astellas Pharma Inc., priority 2006, dated 2010).

Counter-ions that a name gives are not always drawn. Where only a bound is given, the exact number is not on record here.

In the first experiment the target is T1, human CCR4 (Homo sapiens, UniProt P51679).
T1 construct: expressed in transfected cells; membrane fraction used
T1 sequence (P51679 1-360): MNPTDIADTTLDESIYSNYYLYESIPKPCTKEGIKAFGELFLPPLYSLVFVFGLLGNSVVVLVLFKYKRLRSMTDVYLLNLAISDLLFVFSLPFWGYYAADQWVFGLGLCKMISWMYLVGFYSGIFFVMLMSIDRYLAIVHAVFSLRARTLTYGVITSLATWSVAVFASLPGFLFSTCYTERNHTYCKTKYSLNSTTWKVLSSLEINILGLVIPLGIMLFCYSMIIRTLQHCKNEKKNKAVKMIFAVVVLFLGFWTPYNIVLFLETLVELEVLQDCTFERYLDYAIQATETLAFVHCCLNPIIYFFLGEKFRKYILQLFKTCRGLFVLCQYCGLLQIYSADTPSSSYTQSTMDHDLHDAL
Description: [35S]GTPγS binding test via CCR4 (human MDC-stimulated, human CCR4 expressing cell line membrane fraction). The class given is biochemical. Conditions: membrane fraction of human CCR4 expressing B300-16 cells, room temperature 1 hour 30 minutes, read-out: inhibitory activity value (IC50). The method, then: Action for [^35S]GTPγS Binding Test Via CCR4 (1) Preparation of Human CCR4 Expressing Cell Line A vector (contains a neomycin-resistance gene) in which human CCR4 gene was inserted into downstream of the EF-1α promoter was prepared and transfected into a mouse pre B cell line B300-16 cells by electroporation. These cells were cultured using a G-418-supplemented medium, and a single cell line capable of producing human CCR4 constantly and stably was obtained by the limiting dilution method. (2) Preparation of Human CCR4 Expressing Cell Line Membrane Fraction The human CCR4 expressing cells were recovered, washed with PBS and then suspended in a lysis buffer (10 mM HEPES pH 7.5, 2 mM EDTA, proteinase inhibitor). After allowing the suspension to stand on ice for 15 minutes, the cells were disintegrated using a homogenizer and centrifuged (2000 rpm, 10 min, 4° C.). The supernatant was further subjected to ultracentrifugation (22 K, 30 min, 4° C.), and then the pellet was suspended in PBS and used in the subsequent test. (3) GTPγS Binding Test In a reaction mixture liquid containing 20 mM of HEPES pH 7.05, 100 mM of NaCl, 5 mM of MgCl2, 2 μM of GDP, human MDC, […] of [^35S]GTPγS, 1 mg of wheat germ agglutinin SPA beads and 1 μg of the human CCR4 expressing cell line membrane fraction, respective concentration of the test compound was allowed to undergo the reaction at room temperature for 1 hour and 30 minutes, and the radioactivity was measured.
Turning to `COc1cc2nc(N3CCC(N(C)C(=O)[C@@H]4CCCN4C)CC3)nc(Nc3ccc(Cl)cc3F)c2cc1OC` [Example 1, N-(1-{4-[(4-chloro-2-fluorophenyl)amino]-6,7-dimethoxyquinazolin-2-yl}piperidin-4-yl)-N,1-dimethyl-L-prolinamide dihydrochloride], the IC50 is at most 100 nM.
On the same count and under the same terms, as for `CN(C(=O)[C@@H]1CCCN1C)C1CCN(c2nc(Nc3ccc(Cl)cc3F)c3cnn(CC(F)(F)F)c3n2)CC1` [Example 103], the figure is at most 100 nM.
`CN(C(=O)[C@@H]1CCCN1)C1CCN(c2nc(Nc3ccc(Cl)cc3F)c3cc(F)ccc3n2)CC1` [Example 29]: the IC50 was at most 100 nM.
Still for that read-out and setting: as for `CN(C(=O)[C@@H]1CCCN1)C1CCN(c2nc(Nc3ccc(Cl)cc3)c3cc(F)ccc3n2)CC1` [Example 38], the figure is at most 100 nM; as for `COc1cc2nc(N3CCC(N(C)C(=O)[C@H]4CCCN4)CC3)nc(Nc3ccc(Cl)cn3)c2cc1F` [Example 74], at most 100 nM; as for `COc1cc2c(Nc3ccc(Cl)cc3F)nc(N3CCC(N(C)C(=O)[C@@H]4CCCN4C)CC3)nc2cc1F` [Example 36], at most 100 nM.
Same read-out and setting: as for `CCN(C(=O)[C@H]1CCCN1)C1CCN(c2nc(Nc3ccc(Cl)cc3F)c3ccc(C#N)cc3n2)CC1` [Example 28], the figure is at most 100 nM.
As for `CCN(C(=O)[C@H]1CCCN1C)C1CCN(c2nc(Nc3ccc(Cl)cc3F)c3cc(OC)c(OC)cc3n2)CC1` [Example 26], the IC50 is at most 100 nM.
Same read-out and setting: as for `COc1cc2nc(N3CCC(N(C(=O)[C@H]4CCCN4C)C4CC4)CC3)nc(Nc3ccc(Cl)cc3F)c2cc1OC` [Example 21], the figure is at most 100 nM; as for `CN(C(=O)[C@@H]1CCCN1C)C1CCN(c2nc(Nc3ccc(Cl)cc3)c3cc(Br)ccc3n2)CC1` [Example 46], at most 100 nM.
On to `COc1cc2nc(N3CCC(N(C)C(=O)[C@H]4CCCN4)CC3)nc(Nc3c(F)cc(Cl)cc3F)c2cc1F` [Example 78], for which the IC50 is at most 100 nM.
Take `CN(C(=O)[C@@H]1CCCN1)C1CCN(c2nc(Nc3ccc(Cl)cc3F)c3cc(Br)ccc3n2)CC1` [Example 54]: the IC50 was at most 100 nM.
Same read-out and setting: under `CN(C(=O)[C@H]1CCCN1)C1CCN(c2nc(Nc3ccc(Cl)cc3F)c3ccc(C#N)cc3n2)CC1` [Example 68] stands at most 100 nM.
Turning to `COc1cc2nc(N3CCC(N(C(=O)[C@@H]4CCCN4)C4CCC4)CC3)nc(Nc3ccc(Cl)cc3F)c2cc1OC` [Example 16], the IC50 is at most 100 nM.
With `CCn1ncc2c(Nc3ccc(Cl)cc3F)nc(N3CCC(N(C)C(=O)[C@H]4CCCN4)CC3)nc21` [Example 99], the IC50 is at most 100 nM.
Take `CN(C(=O)[C@H]1CCCN1)C1CCN(c2nc(Nc3ccc(Cl)cc3F)c3cnn(CC(F)(F)F)c3n2)CC1` [Example 102]: the IC50 is at most 100 nM.
In the case of `CCN(C(=O)[C@H]1CCCN1)C1CCN(c2nc(Nc3ccc(Cl)cc3F)c3cc(F)ccc3n2)CC1` [Example 33], the IC50 is at most 100 nM.
Still for that read-out and setting: as for `CN(C(=O)[C@H]1CCCN1C)C1CCN(c2nc(Nc3ccc(Cl)cc3F)c3cnn(CC(F)(F)F)c3n2)CC1` [Example 104], the figure is at most 100 nM; as for `COc1cc2nc(N3CCC(N(C(=O)[C@@H]4CCCN4)C4CC4)CC3)nc(Nc3ccc(Cl)cc3F)c2cc1OC` [Example 13], at most 100 nM.
For `COc1cc2nc(N3CCC(N(C)C(=O)[C@H]4CCCN4)CC3)nc(Nc3ccc(Cl)cc3)c2cc1F` [Example 73], the IC50 was at most 100 nM.
Take `CCN(C(=O)[C@@H]1CCCN1)C1CCN(c2nc(Nc3ccc(Cl)cc3F)c3cc(F)c(OC)cc3n2)CC1` [Example 63]: the IC50 was at most 100 nM.
As to `CN(C(=O)[C@H]1CCCN1C)C1CCN(c2nc(Nc3ccc(Cl)cc3F)c3ccc(C#N)cc3n2)CC1` [Example 70], the half-maximal inhibitory concentration (IC50) is at most 100 nM.
`CCN(C(=O)[C@@H]1CCCN1C)C1CCN(c2nc(Nc3ccc(Cl)cc3F)c3cc(Br)ccc3n2)CC1` [Example 57]: the IC50 is at most 100 nM.
Still for that read-out and setting: under `COc1cc2nc(N3CCC(N(C(=O)[C@H]4CCCN4)C4CCC4)CC3)nc(Nc3ccc(Cl)cc3F)c2cc1OC` [Example 17] stands at most 100 nM.
The same measure, in the same setting: under `CN(C(=O)[C@@H]1CCCN1C)C1CCN(c2nc(Nc3ccc(Cl)cc3F)c3ccc(C#N)cc3n2)CC1` [Example 15] stands at most 100 nM; under `COc1cc2nc(N3CCC(N(C)C(=O)[C@@H]4CCCCN4)CC3)nc(Nc3ccc(Cl)cc3F)c2cc1OC` [Example 86], at most 100 nM.

The next experiment has as its system Balb/c mice, oxazolone-induced contact dermatitis. Description: Mouse oxazolone-induced contact dermatitis (ear swelling). The class given is in vivo. Conditions: 30 mg/kg oral administration, swelling 20 hours after oxazolone application. The method, then:
2. Action Upon Mouse Oxazolone-Induced Contact Dermatitis
Balb/c mice (6 to 10 weeks of age, female, Charles River Japan) were sensitized by applying 150 μl of 3% oxazolone/ethanol solution (Sigma Aldrich Japan) to the abdominal part. On the 6th day after the sensitization, 10 μl of 1% oxazolone/ethanol solution was applied to both sides of the right ear. The test drug was administered in 12 hours after the application of the oxazolone solution (test drug administration group), and the solvent alone used in dissolving the test drug was administered to the control group. Thickness of the right auricle was measured before the application and 20 hours thereafter using a […] (Mitsutoyo), and the swelling (thickness increment=measured value after 20 hours−measured value before application) was calculated. The inhibition ratio was calculated by the following formula, by regarding a group to which the oxazolone solution was applied without sensitization as the normal group. In this connection, the above-mentioned test was carried out by 5 animals per group. Inhibition ratio=(swelling of control group−swelling of test drug administration group)×100/(swelling of control group−swelling of normal group)
As for `COc1cc2nc(N3CCC(N(C)C(=O)[C@@H]4CCCN4C)CC3)nc(Nc3ccc(Cl)cc3F)c2cc1OC` [Example 1, N-(1-{4-[(4-chloro-2-fluorophenyl)amino]-6,7-dimethoxyquinazolin-2-yl}piperidin-4-yl)-N,1-dimethyl-L-prolinamide dihydrochloride], the “inhibitory activity (inhibition of right auricle swelling)” value is “good inhibitory activity”.
